Reference: patent publication US9630977B2, “Cephalosporin derivatives and pharmaceutical compositions thereof” (Legochem Biosciences, Inc., priority 2011, dated 2017)
In brackets after ≈: the same amount, converted by molar mass. Like-named read-outs stand apart in the source and are kept apart here.

What was measured:
Experiment in all cases: In vitro antibacterial activity test (broth microdilution)
Assay type in all cases: cell-based
E. coli β4 = conditions: Escherichia coli
Protocol: (§1) To evaluate antibacterial activity of each of the compounds of Examples 1 to 68, in vitro antibacterial activity test was performed.
(§2) The in vitro antibacterial activity was evaluated by measuring MIC90 (ug/mL) of each of the compounds of Examples 1 to 68, which is defined as the lowest concentration of an antibiotic that will inhibit the visible growth of 90% of microorganisms after incubation as compared with a control group to which the antibiotic is not treated. MIC90 values were measured by the broth microdilution method developed by the Clinical and Laboratory Standards Institute (CLSI) (see CLSI M7-A5, Methods for Dilution Antimicrobial Susceptibility Test for Bacteria that Grow Aerobically-Fifth Edition (2000): CLSI, Villanova, Pa.).
(§3) In vitro antibacterial activity was measured with respect to the following 19 clinical isolates: M. catarrhalis; P. aeruginosa (5 strains); K. pneumoniae (6 strains); A. baumannii (3 strains); E. coli (2 strains); A. calcoaceticus; and E. cloacae.
(§4) Test compounds each (the cephalosporin derivative compounds prepared in Examples 1 to 68) were dissolved in DMSO at the concentration of 10,240 ug/mL, were diluted by two fold with DMSO, and then were diluted by twenty fold with sterilized distilled water. The final concentration in the antibacterial activity test was in the range of […] to 128 ug/mL, and the final concentration of DMSO used as an adjuvant was 2.5% (V/V).

M. catarrhalis 2524 = conditions: Moraxella catarrhalis
Protocol: as §1, §2, §3, §4

[1] = tested on: A. calcoaceticus ATCC15473; conditions: Acinetobacter calcoaceticus
Protocol: as §1, §2, §3, §4

P. aeruginosa 40 = tested on: P. aeruginosa 40
Protocol: as §1, §2, §3, §4

K. pneumoniae β9 = conditions: Klebsiella pneumoniae
Protocol: as §1, §2, §3, §4

K. pneumoniae β10 = conditions: Klebsiella pneumoniae
Protocol: as §1, §2, §3, §4

P. aeruginosa 1912E = conditions: Pseudomonas aeruginosa, 1912E
Protocol: as §1, §2, §3, §4

E. coli AG100 = conditions: Escherichia coli
Protocol: as §1, §2, §3, §4

E. cloacae β19 = conditions: Enterobacter cloacae
Protocol: as §1, §2, §3, §4

K. pneumoniae 2011E = conditions: Klebsiella pneumoniae, 2011E
Protocol: as §1, §2, §3, §4

K. pneumoniae β14 = conditions: Klebsiella pneumoniae
Protocol: as §1, §2, §3, §4

A. baumannii 46 = tested on: A. baumannii 46
Protocol: as §1, §2, §3, §4

K. pneumoniae β13 = conditions: Klebsiella pneumoniae
Protocol: as §1, §2, §3, §4

A. baumannii 49 = tested on: A. baumannii 49
Protocol: as §1, §2, §3, §4

P. aeruginosa 37 = conditions: Pseudomonas aeruginosa, 37, P. aeruginosa 37
Protocol: as §1, §2, §3, §4

K. pneumoniae β11 = conditions: Klebsiella pneumoniae
Protocol: as §1, §2, §3, §4

P. aeruginosa 43 = conditions: Pseudomonas aeruginosa
Protocol: as §1, §2, §3, §4

P. aeruginosa 6065Y = conditions: Pseudomonas aeruginosa
Protocol: as §1, §2, §3, §4

A. baumannii 52 = conditions: Acinetobacter baumannii
Protocol: as §1, §2, §3, §4

[2] = M. catarrhalis 2524, read-out: MIC90
[3] = A. calcoaceticus ATCC15473, read-out: MIC90
[4] = Pseudomonas aeruginosa, 40, P. aeruginosa 40, read-out: MIC90
[5] = K. pneumoniae β9, read-out: MIC90
[6] = K. pneumoniae β10, read-out: MIC90
[7] = AG100, E. coli AG100, read-out: MIC90
[8] = K. pneumoniae 2011E, read-out: MIC90
[9] = Acinetobacter baumannii, A. baumannii 46, read-out: MIC90
[10] = K. pneumoniae β13, read-out: MIC90
[11] = Acinetobacter baumannii, A. baumannii 49, read-out: MIC90
[12] = K. pneumoniae β11, read-out: MIC90
[13] = P. aeruginosa 43, read-out: MIC90
[14] = A. baumannii 52, read-out: MIC90
[15] = ATCC15473, A. calcoaceticus ATCC15473
[16] = Acinetobacter baumannii, 46, A. baumannii 46
[17] = Acinetobacter baumannii, 49, A. baumannii 49

| MIC90 (E. coli β4; read-out: MIC90) [µg/mL] | SMILES | MIC90 (E. coli β4) [µg/mL] | MIC90 (M. catarrhalis 2524; 2524) [µg/mL] | MIC90 [1, 15] [µg/mL] | MIC90 (P. aeruginosa 40; Pseudomonas aeruginosa, 40) [µg/mL] | MIC90 (K. pneumoniae β9) [µg/mL] | MIC90 (K. pneumoniae β10) [µg/mL] | MIC90 (P. aeruginosa 1912E) [µg/mL] | MIC90 (E. coli AG100; AG100) [µg/mL] | MIC90 (E. cloacae β19) [µg/mL] | MIC90 (K. pneumoniae 2011E) [µg/mL] | MIC90 (K. pneumoniae β14) [µg/mL] | MIC90 (A. baumannii 46; [16]) [µg/mL] | MIC90 (K. pneumoniae β13) [µg/mL] | MIC90 (A. baumannii 49; [17]) [µg/mL] | MIC90 (P. aeruginosa 37) [µg/mL] | MIC90 (K. pneumoniae β11) [µg/mL] | MIC90 (P. aeruginosa 43; 43) [µg/mL] | MIC90 (P. aeruginosa 6065Y; 6065Y) [µg/mL] | MIC90 (A. baumannii 52; 52) [µg/mL] | also measured |
| --- | --- | --- | --- | --- | --- | --- | --- | --- | --- | --- | --- | --- | --- | --- | --- | --- | --- | --- | --- | --- | --- |
| 1 (≈ 1.27 µM) | C[C@H](O/N=C(\C(=O)N[C@@H]1C(=O)N2C(C(=O)[O-])=C(/C=C/C[n+]3cnc(N)c(NCCNC(=O)c4cc(=O)c(O)cn4O)c3)CSC12)c1csc(N)n1)C(=O)O (some centres unmarked) [Compound 9] |  |  |  |  |  |  |  |  |  |  |  |  |  |  |  |  |  |  |  | MIC90 (M. catarrhalis 2524; [2]): 0.5 µg/mL (≈ 0.636 µM); MIC90 [1, 3]: 0.5 µg/mL (≈ 0.636 µM); MIC90 (P. aeruginosa 40; [4]): < 0.0625 µg/mL; MIC90 (K. pneumoniae β9; [5]): 1 µg/mL (≈ 1.27 µM); MIC90 (K. pneumoniae β10; [6]): 0.125 µg/mL (≈ 0.159 µM); MIC90 (P. aeruginosa 1912E; read-out: MIC90): 0.25 µg/mL (≈ 0.318 µM); MIC90 (E. coli AG100; [7]): < 0.0625 µg/mL; MIC90 (E. cloacae β19; read-out: MIC90): 2 µg/mL (≈ 2.55 µM); MIC90 (K. pneumoniae 2011E; [8]): 0.125 µg/mL (≈ 0.159 µM); MIC90 (K. pneumoniae β14; read-out: MIC90): 64 µg/mL (≈ 81.4 µM); MIC90 (A. baumannii 46; [9]): 0.5 µg/mL (≈ 0.636 µM); MIC90 (K. pneumoniae β13; [10]): 0.25 µg/mL (≈ 0.318 µM); MIC90 (A. baumannii 49; [11]): > 128 µg/mL; MIC90 (P. aeruginosa 37; read-out: MIC90): 0.25 µg/mL (≈ 0.318 µM); MIC90 (K. pneumoniae β11; [12]): > 128 µg/mL; MIC90 (P. aeruginosa 43; [13]): 0.25 µg/mL (≈ 0.318 µM); MIC90 (P. aeruginosa 6065Y; read-out: MIC90): 0.25 µg/mL (≈ 0.318 µM); MIC90 (A. baumannii 52; [14]): > 128 µg/mL |
|  | CC(C)(O/N=C(\C(=O)N[C@@H]1C(=O)N2C(C(=O)[O-])=C(C[n+]3cnc(NCCN)c(NCCNC(=O)c4cc(=O)c(O)cn4O)c3)CSC12)c1csc(N)n1)C(=O)O (some centres unmarked) [Compound 5] | 0.5 (≈ 0.612 µM) | 0.25 (≈ 0.306 µM) | 2 (≈ 2.45 µM) | 1 (≈ 1.22 µM) | < 0.0625 | 1 (≈ 1.22 µM) | 1 (≈ 1.22 µM) | < 0.0625 | 0.5 (≈ 0.612 µM) | 2 (≈ 2.45 µM) | 8 (≈ 9.79 µM) | 16 (≈ 19.6 µM) | 0.5 (≈ 0.612 µM) | > 128 | 1 (≈ 1.22 µM) | 2 (≈ 2.45 µM) | 0.25 (≈ 0.306 µM) | 4 (≈ 4.9 µM) | > 128 |  |
|  | CNCCNc1c[n+](C/C=C/C2=C(C(=O)[O-])N3C(=O)[C@@H](NC(=O)/C(=N\OC(C)(C)C(=O)O)c4csc(N)n4)C3SC2)cnc1N (some centres unmarked) [Compound 51] | 0.125 (≈ 0.189 µM) | < 0.0625 | 0.5 (≈ 0.757 µM) | 4 (≈ 6.05 µM) | 0.5 (≈ 0.757 µM) | 0.25 (≈ 0.378 µM) | 2 (≈ 3.03 µM) | 0.125 (≈ 0.189 µM) | 32 (≈ 48.4 µM) | 0.5 (≈ 0.757 µM) | 0.5 (≈ 0.757 µM) | 8 (≈ 12.1 µM) | 0.5 (≈ 0.757 µM) | > 128 | 32 (≈ 48.4 µM) | 32 (≈ 48.4 µM) | 64 (≈ 96.9 µM) | 32 (≈ 48.4 µM) | 128 (≈ 194 µM) |  |
|  | CC(C)(O/N=C(\C(=O)N[C@@H]1C(=O)N2C(C(=O)[O-])=C(/C=C/C[n+]3cnc(N)c(NC(=O)CCN)c3)CSC12)c1nsc(N)n1)C(=O)O (some centres unmarked) [Compound 61] | 0.125 (≈ 0.185 µM) | < 0.0625 | 1 (≈ 1.48 µM) | 2 (≈ 2.96 µM) | 16 (≈ 23.7 µM) | 1 (≈ 1.48 µM) | 2 (≈ 2.96 µM) | 0.125 (≈ 0.185 µM) | 16 (≈ 23.7 µM) | 0.25 (≈ 0.37 µM) | 4 (≈ 5.92 µM) | 128 (≈ 189 µM) | 2 (≈ 2.96 µM) | 128 (≈ 189 µM) | 32 (≈ 47.4 µM) | > 128 | > 128 | 32 (≈ 47.4 µM) | 128 (≈ 189 µM) |  |
| 16 (≈ 19.1 µM) | CC(C)(O/N=C(\C(=O)N[C@@H]1C(=O)N2C(C(=O)[O-])=C(C[n+]3cnc(N)c(NC(=O)CCNC(=O)c4cc(=O)c(O)cn4O)c3)CSC12)c1nc(N)sc1Cl)C(=O)O (some centres unmarked) [Compound 18] |  |  |  |  |  |  |  |  |  |  |  |  |  |  |  |  |  |  |  | MIC90 (M. catarrhalis 2524; [2]): 0.5 µg/mL (≈ 0.598 µM); MIC90 [1, 3]: 1 µg/mL (≈ 1.2 µM); MIC90 (P. aeruginosa 40; [4]): 2 µg/mL (≈ 2.39 µM); MIC90 (K. pneumoniae β9; [5]): 8 µg/mL (≈ 9.57 µM); MIC90 (K. pneumoniae β10; [6]): 4 µg/mL (≈ 4.78 µM); MIC90 (P. aeruginosa 1912E; read-out: MIC90): 1 µg/mL (≈ 1.2 µM); MIC90 (E. coli AG100; [7]): 2 µg/mL (≈ 2.39 µM); MIC90 (E. cloacae β19; read-out: MIC90): 64 µg/mL (≈ 76.5 µM); MIC90 (K. pneumoniae 2011E; [8]): 16 µg/mL (≈ 19.1 µM); MIC90 (K. pneumoniae β14; read-out: MIC90): 128 µg/mL (≈ 153 µM); MIC90 (A. baumannii 46; [9]): 128 µg/mL (≈ 153 µM); MIC90 (K. pneumoniae β13; [10]): 4 µg/mL (≈ 4.78 µM); MIC90 (A. baumannii 49; [11]): 8 µg/mL (≈ 9.57 µM); MIC90 (P. aeruginosa 37; read-out: MIC90): 0.25 µg/mL (≈ 0.299 µM); MIC90 (K. pneumoniae β11; [12]): 64 µg/mL (≈ 76.5 µM); MIC90 (P. aeruginosa 43; [13]): 0.25 µg/mL (≈ 0.299 µM); MIC90 (P. aeruginosa 6065Y; read-out: MIC90): 2 µg/mL (≈ 2.39 µM); MIC90 (A. baumannii 52; [14]): 2 µg/mL (≈ 2.39 µM) |
